According to ChEMBL document CHEMBL1275255, “Role of Fks1p and matrix glucan in Candida albicans biofilm resistance to an echinocandin, pyrimidine, and polyene” (2010):
In brackets after ≈: the same amount, converted by molar mass. Starred links: 1 amine or outer side, 2 acyl side, 3 side chain; linkers in the order of their positions; H or OH if unused. Positions of bridges follow the written chain, without caps; N, C: chain ends. Non-standard residues stand in square brackets, D forms with d. Residues, ends and D or L forms follow the SMILES beside them. *: point of attachment. pTerphenylCO(4''-OnC5H11) = CCCCCOc1ccc(-c2ccc(-c3ccc(C(=O)*)cc3)cc2)cc1; Orn(4R-OH,5R-OH) = O=C([C@H](C[C@@H](O)[C@@H](O)N[*:3])N[*:1])[*:2]; hTyr(3S-OH,4S-OH) = N[C@H](C(=O)O)[C@H](O)[C@@H](O)c1ccc(O)cc1; Pro(3S-OH,4S-Me) = C[C@H]1CN[C@H](C(=O)O)[C@H]1O; Hyp = O=C(O)[C@@H]1C[C@@H](O)CN1

Assays:
Type in all cases: functional
Candida albicans [1] = assay: Antifungal activity against […] gene deficient Candida albicans
Candida albicans [2] = assay: Antifungal activity against Candida albicans grown as planktonic cell after 24 hrs by XTT reduction assay
Candida albicans [3] = assay: Antifungal activity against Candida albicans TDH3 overexpressing FKS1 gene
Candida albicans [4] = assay: Antifungal activity against Candida albicans assessed as decrease in biofilm formation at 0.25 ug/ml; design: scale not given: the % may be the effect or the level left
Candida albicans [5] = assay: Antifungal activity against […] gene deficient Candida albicans assessed as decrease in biofilm formation at 0.25 ug/ml; design: scale not given: the % may be the effect or the level left

SMILES	MIC (Candida albicans [1]) [µg/mL]	MIC (Candida albicans [2]) [µg/mL]	MIC (Candida albicans [3]) [µg/mL]	Activity (Candida albicans [4]) [%]	Activity (Candida albicans [5]) [%]
CCCCCOc1ccc(-c2ccc(-c3ccc(C(=O)N[C@H]4C[C@@H](O)[C@@H](O)NC(=O)[C@@H]5[C@@H](O)[C@@H](C)CN5C(=O)[C@H]([C@@H](C)O)NC(=O)[C@H]([C@H](O)[C@@H](O)c5ccc(O)cc5)NC(=O)[C@@H]5C[C@@H](O)CN5C(=O)[C@H]([C@@H](C)O)NC4=O)cc3)cc2)cc1 [ANIDULAFUNGIN] ({pTerphenylCO(4''-OnC5H11)}-[Orn(4R-OH,5R-OH)]T[Hyp][hTyr(3S-OH,4S-OH)]T[Pro(3S-OH,4S-Me)]; lactam 1-C)	0.01 (≈ 0.00877 µM)	0.01 (≈ 0.00877 µM)	0.01 (≈ 0.00877 µM)	–	–
Nc1nc(=O)[nH]cc1F [FLUCYTOSINE]	0.03 (≈ 0.232 µM)	0.03 (≈ 0.232 µM)	0.03 (≈ 0.232 µM)	–	–
C[C@@H]1[C@H](O)[C@@H](C)/C=C/C=C/C=C/C=C/C=C/C=C/C=C/[C@H](O[C@@H]2O[C@H](C)[C@@H](O)[C@H](N)[C@@H]2O)C[C@@H]2O[C@](O)(C[C@@H](O)C[C@@H](O)[C@H](O)CC[C@@H](O)C[C@@H](O)CC(=O)O[C@H]1C)C[C@H](O)[C@H]2C(=O)O [AMPHOTERICIN B]	–	–	–	60	80
